This note sets out measurements from the OPERA property sets (Mansouri et al. 2018).

Molecules are shown by their SMILES.

Conditions in the first data set: not given
The boiling point is the temperature at which the vapour pressure of the liquid equals the pressure above it. Broadly, the melting point is the temperature of the solid-liquid transition. With `C=C(c1ccccc1)c1ccccc1`, the boiling point was 277 °C, the log10 vapour pressure (mmHg) was -1.88 and the melting point came out at 8.2 °C. For `CC1(CCl)CO1` (stereo unspecified), the boiling point turned out to be 122 °C and the ready biodegradability entry is “not readily biodegradable”. `CCCCCCCC[Si](Cl)(Cl)Cl` yielded a boiling point of 232 °C. Turning to `Nc1ccc(F)cc1F`, the boiling point is 170 °C and the melting point is -7.5 °C.

Molecule `CC(C)(C)c1nnc(NS(=O)(=O)c2ccccc2)s1` came in with a melting point of 163 °C. `CNC(=O)C(C)SCCSP(=O)(OC)OC` (stereo unspecified) displayed a melting point of 43 °C. Turning to `C(=Cc1ccncc1)c1ccccc1`, the ready biodegradability result is recorded as “readily biodegradable”. In the case of `C/C(=C\c1ccccc1)C(=O)O`, the log10 vapour pressure (mmHg) is -3.04 and the melting point came out at 80 °C. The molecule `Cc1cnc(C)o1` displayed a boiling point of 118 °C. With `Clc1ccc(C(c2ccccc2Cl)C(Cl)(Cl)Cl)cc1` (stereo unspecified), the log10 Koa amounted to 9.45 and the log10 vapour pressure (mmHg) is -5.87. For the molecule `CCCOC=O`, the boiling point came out at 80.9 °C, the log10 Koa was 2.66, the log10 vapour pressure (mmHg) turned out to be 1.92 and the melting point is -92.9 °C.

In turn, `CC(/C=C/C=C(\C)C(=O)O)=C\C=C\C=C(C)\C=C\C=C(/C)C(=O)O` displayed a melting point of 286 °C. Turning to `CCCCSP(=O)(SCCCC)SCCCC`, the log10 Henry constant (atm·m³/mol) was -6.53, the log10 Koc (L/kg) was determined as 3.7, the log10 vapour pressure (mmHg) is -5.28 and the ready biodegradability result is reported as “readily biodegradable”. As for `CCCCCCCCCCCCCCCCCBr`, the boiling point stood at 349 °C, the log10 vapour pressure (mmHg) was -4.74 and the melting point was 32 °C.

With `Oc1c(C2CCCCC2)cccc1C1CCCCC1`, the ready biodegradability entry is “not readily biodegradable”.

The molecule `CCCC(=O)CC(C)C` gave a boiling point of 155 °C. For the molecule `CN(C)C(=O)Nc1ccc(SC(F)(F)Cl)c(Cl)c1`, the melting point amounted to 114 °C. Same read-out and setting: next, `C[C@]12C=CC(=O)C=C1[C@@H](F)C[C@@H]1[C@@H]2[C@@H](O)C[C@@]2(C)[C@H]1CC[C@]2(O)C(=O)CO`: 210 °C; `CCCC(C(N)=O)n1nnc2ccccc21` (stereo unspecified): 125 °C; `CCCCP(=O)(CCCC)CCCC`: 64 °C. Still for that read-out and setting: under `O=C(OCC1CCC2OC2C1)C1CCC2OC2C1` (stereo unspecified) stands -37 °C; under `CC1=CC(=O)c2c(O)cccc2C1=O`, 78.5 °C; under `C/C=C(/C)C(=O)O[C@H]1CCN2CC=C(COC(=O)[C@](O)([C@H](C)OC)C(C)(C)O)[C@H]12`, 95 °C. With `CNC(=O)CSP(=S)(OC)OC`, the log10 Koc (L/kg) was 1.2, the log10 vapour pressure (mmHg) was -4.73, the melting point is 52 °C and the ready biodegradability entry is “not readily biodegradable”. `COC(=O)Cn1ccnc1[N+](=O)[O-]` displayed a melting point of 96 °C.

As to `Cc1cccc(Cl)c1`, the boiling point came to 162 °C, the log10 vapour pressure (mmHg) was found to be 0.565 and the melting point was -47.8 °C. `FC(F)(F)c1ccc2c(c1)Nc1ccccc1S2` displayed a melting point of 189 °C. As to `O=[N+]([O-])c1cc(F)c(F)cc1F`, the boiling point amounted to 194 °C and the melting point is -11 °C. `CCCC(C)(Cl)Cl`: the melting point is 128 °C. Regarding `CC(=O)I`, the boiling point stood at 108 °C and the log10 vapour pressure (mmHg) is 1.51. On to `Brc1cc(Br)c(Br)c(Oc2ccc(Br)c(Br)c2Br)c1`, for which the ready biodegradability entry was “not readily biodegradable”.

Consider `O=C(CCl)c1ccc(Cl)cc1`, for which the boiling point is 270 °C and the melting point is 102 °C. Take `CNC`: the boiling point is 6.8 °C, the log10 Henry constant (atm·m³/mol) is -4.75, the log10 Koa turned out to be 2 and the log10 vapour pressure (mmHg) stood at 3.18. The ready biodegradability entry was “readily biodegradable”.

For `CCCCCCC(=O)O`, the boiling point came out at 222 °C, the log10 vapour pressure (mmHg) is -1.97, the melting point was -7.5 °C and the ready biodegradability result is “readily biodegradable”. Turning to `C=C1CCC2CC1C2(C)C` (stereo unspecified), the boiling point came to 166 °C, the log10 vapour pressure (mmHg) was determined as 0.467 and the melting point was -61.2 °C. The molecule `O=C(c1ccc(Cl)cc1)c1ccc(Cl)cc1` gave a boiling point of 353 °C and a melting point of 148 °C. In the same order, the values of `CCOC(=O)c1ccncc1` are 220 °C and 23 °C.

Take `C1CNCCN1`: the boiling point is 146 °C, the log10 vapour pressure (mmHg) was -0.796 and the ready biodegradability result is “not readily biodegradable”. As for `CCOC(=O)[C@@H](N)CS.Cl`, the melting point is 124 °C. `Cc1ccc(C(C)C)c(O)c1C(=O)O` came in with a melting point of 127 °C. For `Oc1c(Br)c(Br)c(Br)c(Br)c1Br`, the melting point was determined as 230 °C and the ready biodegradability result is listed as “not readily biodegradable”. Take `Clc1ccc(Cl)nc1`: the melting point came to 60.5 °C. Same read-out and setting: under `Cc1cc(Cl)cc([N+](=O)[O-])c1` stands 61 °C.

Turning to `CC(=O)CC(=O)C(F)(F)F`, the boiling point was 106 °C. Same read-out and setting: next, `C=CCC(O)C=C` (stereo unspecified): 134 °C. In turn, `Cc1ccccc1C(=O)Cl` showed a boiling point of 214 °C. Consider `CCCCN(CCCC)SN(C)C(=O)Oc1cccc2c1OC(C)(C)C2`, for which the log10 vapour pressure (mmHg) was -6.51. As for `Cc1ccc(C)c(C(=O)O)c1`, the melting point amounted to 132 °C. In turn, `CCCSc1ccc2[nH]c(NC(=O)OC)nc2c1` gave a melting point of 209 °C.

The same data set, now with this note: fish.
In turn, `Cc1cc2cccc(CCCC(C)C)c2cc1C` displayed a log10 biotransformation half-life (days) of 0.06. Take `Cc1ccsc1`: the log10 BCF was found to be 0.72 and the log10 biotransformation half-life (days) was -1.27. `NCCNCCN` had a log10 BCF of 0.65. As to `Nc1c(Oc2ccc(Br)cc2)cc(O)c2c1C(=O)c1ccccc1C2=O`, the log10 BCF is 2.05.

In the case of `Clc1ccc(C(c2ccccc2Cl)C(Cl)(Cl)Cl)cc1` (stereo unspecified), the log10 biotransformation half-life (days) amounted to 1.71. Turning to `Oc1c(C2CCCCC2)cccc1C1CCCCC1`, the log10 BCF amounted to 3.02 and the log10 biotransformation half-life (days) was 0.2. The corresponding values for `CNC(=O)CSP(=S)(OC)OC` are 0.2 and -1.01. With `C1CNCCN1`, the log10 BCF is 0.59.
